pIC50: −log10 of the molar value. Counter-ions that a name gives are not always drawn.
Biological target: serotonin transporter (Rattus norvegicus, UniProt P31652)
Test: Serotonin transporter/uptake assay: synaptosomal uptake of 3H-5-hydroxytryptamine
Format: biochemical
Conditions: not given
Procedure: In this example the biological activity of the compounds of the invention are determined using a serotonin transporter/uptake assay. Serotonin transporters/uptake sites on nerve terminals presumably function to terminate neuronal signaling by removing serotonin from the synaptic cleft. The activity of the serotonin transporter integral protein can be measured in vitro by synaptosomal uptake of ^3H-5-hydroxytryptamine.
Preparations are performed at 0-4° C. Cerebral cortices from male Wistar rats (150-200 g) are homogenized for 5-10 seconds in 100 volumes of ice-cold 0.32 M sucrose containing 1 mM pargyline, and using a motor driven teflon pestle in a glass homogenizing vessel.
Monoamine oxidase activity becomes inhibited by pargyline.
The homogenate is centrifuged at 1000×g for 10 minutes. The resulting supernatant is subjected to centrifugation at 27,000×g for 50 minutes, and the supernatant is discarded. The pellet (P2) is re-suspended in oxygenated (equilibrated with an atmosphere of 96% O2: 4% CO2 for at least 30 minutes) Krebs-Ringer incubation buffer (1000 ml per g of original tissue) at pH 7.2, containing 122 mM NaCl, 0.16 mM EDTA, 4.8 mM KCl, 12.7 mM Na2HPO4, 3.0 mM NaH2PO4, 1.2 mM MgSO4, 1 mM CaCl2, 10 mM glucose and 1 mM ascorbic acid.
Aliquots of 4.0 ml tissue suspension are added to 100 μl of test solution and 100 μl of ^3H-5-HT (1 nM, final concentration), mixed and incubated for 30 minutes at 37° C. Non-specific uptake is determined using Citalopram (1 μM, final concentration; Available from H. Lundbeck, Denmark), a serotonin reuptake inhibitor.
After incubation the samples are poured directly onto Whatman GF/C glass fibre filters under suction. The filters are washed three times with 5 ml of ice-cold 0.9% (w/v) NaCl solution.
The amount of radioactivity on the filters is determined by conventional liquid scintillation counting. Specific uptake is calculated as the difference between total uptake and non-specific uptake.
25-75% inhibition of specific binding must be obtained, before calculation of an IC50.
The test value is presented as IC50 (the concentration (μM) of the test substance which inhibits the specific binding of ^3H-5-HT by 50%), calculated according to the following equation: […]
where Co is specific binding in control assays and Cx is the specific binding in the test assay (the calculations assume normal mass-action kinetics).

Sequence of serotonin transporter (P31652 whole entry): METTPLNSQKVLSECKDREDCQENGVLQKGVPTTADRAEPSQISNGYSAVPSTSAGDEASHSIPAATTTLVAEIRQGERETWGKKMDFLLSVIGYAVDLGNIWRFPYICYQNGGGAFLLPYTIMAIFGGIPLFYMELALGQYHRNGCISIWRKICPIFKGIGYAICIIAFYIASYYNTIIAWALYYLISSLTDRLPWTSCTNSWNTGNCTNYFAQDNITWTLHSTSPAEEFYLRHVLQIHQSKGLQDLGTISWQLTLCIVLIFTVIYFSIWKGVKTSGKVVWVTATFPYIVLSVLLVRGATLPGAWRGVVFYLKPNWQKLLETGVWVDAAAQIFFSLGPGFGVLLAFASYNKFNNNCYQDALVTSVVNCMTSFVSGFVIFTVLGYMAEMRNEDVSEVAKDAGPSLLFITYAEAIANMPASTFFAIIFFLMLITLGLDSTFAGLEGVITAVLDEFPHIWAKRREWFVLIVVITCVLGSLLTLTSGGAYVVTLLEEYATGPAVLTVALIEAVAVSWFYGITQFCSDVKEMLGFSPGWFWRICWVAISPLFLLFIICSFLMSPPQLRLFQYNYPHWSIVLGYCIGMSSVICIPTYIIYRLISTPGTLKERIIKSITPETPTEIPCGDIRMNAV

Question: How did the pIC50 turn out when c1ccc2nc(N3C[C@@H]4C[C@H]3CN4)ccc2c1 [Compound 1, 2-(2-Quinolinyl)-(1S,4S)-2,5-diazabicyclo-[2.2.1]-heptane fumaric acid salt] was run?
Answer: 7.06

Question: With O=[N+]([O-])c1ccc2nc(N3C[C@@H]4C[C@H]3CN4)ccc2c1 [Compound 3, 2-(6-Nitro-2-quinolinyl)-(1S,4S)-2,5-diazabicyclo-[2.2.1]-heptane fumaric acid salt] as the compound, how does the pIC50 read?
Answer: 9.62

Question: CN1C[C@@H]2C[C@H]1CN2c1ccc2cc([N+](=O)[O-])ccc2n1 [Compound 4, 2-(6-Nitro-2-quinolinyl)-5-methyl-(1S,4S)-2,5-diazabicyclo-[2.2.1]-heptane fumaric acid salt] was tested. Which pIC50 did it give?
Answer: 8.47

Same assay, conditions: synaptosomes from cerebral cortices of male Wistar rats; 3H-5-HT 1 nM; 30 minutes at 37° C.; read-out: Serotonin uptake IC50

Question: How did the pIC50 turn out when CN1C[C@@H]2C[C@H]1CN2c1ccc2ccccc2n1 [Compound 2, 2-(2-Quinolinyl)-5-methyl-(1S,4S)-2,5-diazabicyclo-[2.2.1]-heptane] was run?
Answer: 6.89

Question: CN1C[C@@H]2C[C@H]1CN2c1ccc2cc(N)ccc2n1 [Compound 5, 2-(6-Amino-2-quinolinyl)-5-methyl-(1S,4S)-2,5-diazabicyclo-[2.2.1]-heptane fumaric acid salt] was tested. Which pIC50 did it give?
Answer: 6.08

Question: How did the pIC50 turn out when c1ccc2sc(N3C[C@@H]4C[C@H]3CN4)nc2c1 [Compound 7, 2-(2-Benzothiazolyl)-(1S,4S)-2,5-diazabicyclo-[2.2.1]-heptane fumaric acid salt] was run?
Answer: 6.46

— patent US7329754B2, “2,5-diazabicyclo[2.2.1]heptane derivatives” (Neurosearch A/S, priority 2001, dated 2008)
